# Read-outs that look alike come from different tables or passages of the source.
# Legend:
# CD46 expression [1] = test: CD46 expression by RNA-sequencing in unpaired pre-treatment and post-treatment tumor biopsies; type: in vivo, human; conditions: for CD46 expression Post: post-treatment biopsies
# CD46 expression [2] = test system: CD46 expression
# Protocol: (§1) Gene expression was determined by RNA-sequencing from formalin-fixed, paraffin-embedded (FFPE) tumor samples using an exome capture-based protocol. Briefly, total nucleic acid was extracted from FFPE solid tumor samples. The RNA sample was treated with DNAse and reverse transcribed. cDNA was captured with a custom probe set targeting the human exome. A library was prepared from the captured cDNA and sequenced on the Illumina platform. Sequence read were aligned to GRCh37 using Kallisto and normalized to quantify gene expression. Specifically, transcript counts were corrected for GC content and length using quantile normalization and adjusted for sequencing depth via a size factor method. Normalized counts in protein coding transcripts covered by the exome panel were then summed to obtain gene-level counts. Subsequent expression analyses were performed on log2-transformed counts.
# CD46 expression [3] = test: CD46 expression by RNA-sequencing in paired tumor biopsies before and after therapy; conditions: paired biopsies; for CD46 expression, Post-Treatment Biopsy: RNA-seq log2-transformed counts;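 as to all read-outs here: FFPE human tumor biopsies, exome-capture RNA-seq, reads aligned to GRCh37, counts normalized for GC content, length and depth, summed per gene, log2-transformed, samples paired before versus after therapy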
# Protocol: as §1
smiles,measurement,setting,value
C=C1C[C@@H]2[C@H](CC[C@]3(C)C(=O)CC[C@@H]23)[C@@]2(C)C=CC(=O)C=C12 [exemestane],CD46 expression diff,"CD46 expression [1]; Breast Cancer, Post minus Pre, unpaired biopsies, log2-transformed counts",0.11
same,CD46 expression Percentage change,"CD46 expression [1]; Breast Cancer, post- vs pre-treatment unpaired biopsies",1.8%
same,CD46 expression Post,"CD46 expression [1]; Breast Cancer, unpaired, RNA-seq log2-transformed normalized counts",6.50
same,"CD46 expression, Post-Treatment Biopsy",CD46 expression [2],6.37
same,"CD46 expression, Pre-Treatment Biopsy",CD46 expression [2],6.41
same,CD46 expression diff (post minus pre),"CD46 expression [2]; Breast Cancer, paired biopsies",−0.04
same,Percent Change in CD46 expression,"CD46 expression [2]; Breast Cancer, paired biopsies",0.5%
CC(=O)O[C@H]1C(=O)[C@@]2(C)[C@H]([C@H](OC(=O)c3ccccc3)[C@]3(O)C[C@H](OC(=O)[C@H](O)[C@@H](NC(=O)c4ccccc4)c4ccccc4)C(C)=C1C3(C)C)[C@]1(OC(C)=O)CO[C@@H]1C[C@@H]2O [paclitaxel],CD46 expression diff,"CD46 expression [1]; Breast Cancer, post minus pre, unpaired biopsies",−0.15
same,CD46 expression Percentage change,"CD46 expression [1]; Breast Cancer, post vs pre, unpaired biopsies",−2.4%
same,CD46 expression Post,"CD46 expression [1]; Breast Cancer, log2-transformed RNA-seq counts",6.04
same,CD46 expression diff,"CD46 expression [1]; Endometrial Cancer, Post minus Pre, unpaired biopsies, log2-transformed counts",0.03
same,CD46 expression Percentage change,"CD46 expression [1]; Endometrial Cancer, post- vs pre-treatment unpaired biopsies",0.6%
same,CD46 expression Post,"CD46 expression [1]; Endometrial Cancer, unpaired, RNA-seq log2-transformed normalized counts",5.85
same,CD46 expression diff,"CD46 expression [1]; Esophageal Cancer, Post minus Pre, unpaired biopsies, log2-transformed counts",−0.13
same,CD46 expression Percentage change,"CD46 expression [1]; Esophageal Cancer, post- vs pre-treatment unpaired biopsies",−2.1%
same,CD46 expression Post,"CD46 expression [1]; Esophageal Cancer, unpaired, RNA-seq log2-transformed normalized counts",5.79
same,CD46 expression diff,"CD46 expression [1]; Gastric Cancer, Post minus Pre, unpaired biopsies, log2-transformed counts",0.04
same,CD46 expression Percentage change,"CD46 expression [1]; Gastric Cancer, post- vs pre-treatment unpaired biopsies",0.7%
same,CD46 expression Post,"CD46 expression [1]; Gastric Cancer, unpaired, RNA-seq log2-transformed normalized counts",5.82
same,CD46 expression diff,"CD46 expression [1]; Head and Neck Squamous Cell Carcinoma, Post minus Pre, unpaired biopsies, log2-transformed counts",0.13
same,CD46 expression Percentage change,"CD46 expression [1]; Head and Neck Squamous Cell Carcinoma, post- vs pre-treatment unpaired biopsies",2.4%
same,CD46 expression Post,"CD46 expression [1]; Head and Neck Squamous Cell Carcinoma, unpaired, RNA-seq log2-transformed normalized counts",5.68
same,CD46 expression diff,"CD46 expression [1]; Non-Small Cell Lung Cancer, Post minus Pre, unpaired biopsies, log2-transformed counts",−0.07
same,CD46 expression Percentage change,"CD46 expression [1]; Non-Small Cell Lung Cancer, post- vs pre-treatment unpaired biopsies",−1.1%
same,CD46 expression Post,"CD46 expression [1]; Non-Small Cell Lung Cancer, unpaired, RNA-seq log2-transformed normalized counts",6.00
same,CD46 expression diff,"CD46 expression [1]; Ovarian Cancer, Post minus Pre, unpaired biopsies, log2-transformed counts",−0.01
same,CD46 expression Percentage change,"CD46 expression [1]; Ovarian Cancer, post- vs pre-treatment unpaired biopsies",−0.1%
same,CD46 expression Post,"CD46 expression [1]; Ovarian Cancer, unpaired, RNA-seq log2-transformed normalized counts",5.73
same,CD46 expression diff,"CD46 expression [1]; Sarcoma, Post minus Pre, unpaired biopsies, log2-transformed counts",−0.09
same,CD46 expression Percentage change,"CD46 expression [1]; Sarcoma, post- vs pre-treatment unpaired biopsies",−1.7%
same,CD46 expression Post,"CD46 expression [1]; Sarcoma, unpaired, RNA-seq log2-transformed normalized counts",4.96
same,CD46 expression diff (post minus pre),CD46 expression [3]; Breast Cancer,−0.09
same,Percent Change in CD46 expression,CD46 expression [3]; Breast Cancer,−1.4%
same,"CD46 expression, Post-Treatment Biopsy",CD46 expression [3]; Breast Cancer,6.12
same,CD46 expression diff (post minus pre),CD46 expression [3]; Endometrial Cancer,0.19
same,Percent Change in CD46 expression,CD46 expression [3]; Endometrial Cancer,3.2%
same,"CD46 expression, Post-Treatment Biopsy",CD46 expression [3]; Endometrial Cancer,6.01
same,CD46 expression diff (post minus pre),CD46 expression [3]; Esophageal Cancer,0.05
same,Percent Change in CD46 expression,CD46 expression [3]; Esophageal Cancer,0.8%
same,"CD46 expression, Post-Treatment Biopsy",CD46 expression [3]; Esophageal Cancer,6.02
same,CD46 expression diff (post minus pre),CD46 expression [3]; Non-Small Cell Lung Cancer,−0.23
same,Percent Change in CD46 expression,CD46 expression [3]; Non-Small Cell Lung Cancer,−3.7%
same,"CD46 expression, Post-Treatment Biopsy",CD46 expression [3]; Non-Small Cell Lung Cancer,5.89
same,CD46 expression diff (post minus pre),CD46 expression [3]; Ovarian Cancer,−0.04
same,Percent Change in CD46 expression,CD46 expression [3]; Ovarian Cancer,−0.8%
same,"CD46 expression, Post-Treatment Biopsy",CD46 expression [3]; Ovarian Cancer,5.67
Cn1nnc2c(C(N)=O)ncn2c1=O [temozolomide],CD46 expression diff,"CD46 expression [1]; Endocrine Tumor, Post minus Pre, unpaired biopsies, log2-transformed counts",−0.04
same,CD46 expression Percentage change,"CD46 expression [1]; Endocrine Tumor, post- vs pre-treatment unpaired biopsies",−0.8%
same,CD46 expression Post,"CD46 expression [1]; Endocrine Tumor, unpaired, RNA-seq log2-transformed normalized counts",5.52
same,CD46 expression diff,"CD46 expression [1]; Glioblastoma, Post minus Pre, unpaired biopsies, log2-transformed counts",0.08
same,CD46 expression Percentage change,"CD46 expression [1]; Glioblastoma, post- vs pre-treatment unpaired biopsies",1.6%
same,CD46 expression Post,"CD46 expression [1]; Glioblastoma, unpaired, RNA-seq log2-transformed normalized counts",4.85
same,CD46 expression diff (post minus pre),CD46 expression [3]; Glioblastoma,0.04
same,Percent Change in CD46 expression,CD46 expression [3]; Glioblastoma,0.8%
same,"CD46 expression, Post-Treatment Biopsy",CD46 expression [3]; Glioblastoma,4.80
